Reference: patent US8513285B2, “3 or 4-substituted piperidine compounds” (SK Biopharmaceuticals Co., Ltd., priority 2008, dated 2013)

Columns and labels:
[1] = target: T1, human serotonin transporter (Homo sapiens, UniProt P31645); assay: Serotonin transporter reuptake inhibition assay; type: cell-based; details: HEK293; 100 nM; HEK-293 cells with human serotonin transporter; [3H]Serotonin uptake; read-out: Inhibition % at 100 nM 5-HT reuptake
T1 construct: expressed in transfected cells; host or cells: HEK-293
Procedure: Serotonin Transporter Reuptake Inhibition Assay
The method to test the ability of compounds to inhibit transporters from reuptake of serotonin followed Gu H. et al., J Biol. Chem., 1994, 269, p […].
The recombinant HEK-293 cells with human serotonin transporter were plated. Test compounds were pre-incubated with cells (2×10^5/ml) in modified Tris-HEPES buffer pH 7.1 for 20 minutes at 25° C. and then they were incubated for additional 10 minutes after 65 nM of [^3H]Serotonin was added. Bound cells were filtered and counted to determine [^3H]Serotonin uptake. Reduction of [^3H]Serotonin uptake by 50 percent or more (≧50%) relative to 10 μM fluoxetine indicates significant inhibitory activity. Compounds were screened at 10, 1, 0.1, 0.01 and 0.001 μM for IC50s.

[2] = target: T2, human recombinant norepinephrine transporter (Homo sapiens, UniProt P23975); assay: Norepinephrine transporter reuptake inhibition assay; type: cell-based; details: 100 nM; MDCK cells with human norepinephrine transporter; [3H]Norepinephrine uptake; read-out: Inhibition % at 100 nM NE reuptake
T2 construct: expressed in transfected cells; host or cells: MDCK
Procedure: Norepinephrine Transporter Reuptake Inhibition Assay
Norepinephrine transporter reuptake inhibition assay used the method described by Galli A. et al., J Exp Biol., 1995, 198, p 2197˜2212.
MDCK cells with stably expressed human recombinant norepinephrine transporter were plated one day. Test compounds were pre-incubated with cells (2×10^5/ml) in modified Tris-HEPES buffer pH 7.1 for 20 minutes at 25° C. and then they were incubated for additional 10 minutes after 25 nM of [^3H]Norepinephrine was added. A lysate was obtained from solubilized cells and the filtered lysate was counted to determine [^3H]Norepinephrine uptake. Reduction of [^3H]Norepinephrine uptake by 50 percent or more (≧50%) relative to 10 μM desipramine indicates significant inhibitory activity. Compounds were screened at 10, 1, 0.1, 0.01 and 0.001 μM to determine their IC50s.

[3] = target: T3, human recombinant dopamine transporter (Homo sapiens, UniProt Q01959); assay: Dopamine transporter reuptake inhibition assay; type: cell-based; details: 100 nM; CHO-K1 cells with human dopamine transporter; [3H]Dopamine uptake; read-out: Inhibition % at 100 nM DA reuptake
T3 construct: expressed in transfected cells; host or cells: CHO-K1
Procedure: Dopamine Transporter Reuptake Inhibition Assay
The assay followed the method modified from Pristupa Z. B. et al., Mol. Pharmacol., 1994, p 125˜135.
CHO-K1 cells with human recombinant dopamine transporter were plated. Test compounds were pre-incubated with cells (4×10^5/ml) in modified Tris-HEPES buffer pH 7.1 for 20 minutes at 25° C. and then they were incubated for additional 10 minutes after 50 nM of [^3H]Dopamine was added. A lysate is obtained from solubilized cells and counted to determine [^3H]Dopamine uptake. Reduction of [^3H]Dopamine uptake by 50 percent or more (≧50%) relative to 10 μM nomifensine indicates significant inhibitory activity. Compounds were tested at 10, 1, 0.1, 0.01 and 0.001 μM for IC50s.

[4] = tested on: mice; assay: Forced swimming test in mice (FST); type: in vivo; details: Mus musculus, 0.5 h, 30ip, 30 min after administration, vs control group, read-out: Reduction % at 30ip (duration of immobility)
Procedure: Forced Swimming Test in Mice (FST)
The Forced swimming test is an animal model based on the rodent's behavioral repertoire for screening drugs with potential antidepressant activity. As in several other models used for this goal, an uncontrollable stress stimulus produces behavioral changes that are sensitive to antidepressant treatment.
The mice were intraperitoneally treated with the test compound with an injection volume of […]. The group treated with 30% PEG400 served as a control group. Thirty minutes following administration, mice were individually forced to swim in a transparent glass vessel (14 cm high, 11.5 cm in diameter) filled with 10 cm of water at 25° C. The total duration of immobility (second) was measured during the last 4 minutes of a single 6-min test session. Mice were considered immobile when they made no further attempts to escape other than the movements necessary to keep their heads above the water. The potent ability of the compounds was determined as percent value of reduction in the duration of immobility comparing to the control group.

[5] = tested on: mice; assay: Marble burying test; type: in vivo; details: 30 min after treatment, vs control group
Text: The Marble burying test is a screening tool for putative anxiolytics. In this test, control mice naturally bury glass marbles in the cage bedding and the administration of anxiolytic compounds, including Diazepam, reduces the number of buried marbles. Positive compounds in the marble burying test including selective serotonin reuptake inhibitor may be especially beneficial to obsessive-compulsive disorder.
A group of mice was intraperitoneally treated with test compound dissolved in 30% PEG400 with an injection volume of 10 ml/kg. The group treated with only 30% PEG400 served as a control group. Thirty minutes after the treatment, the animals were individually placed in a polycarbonate cage which was same as used for animal housing with an open top located within a quiet room. Each cage consisted of ⅛ inch corn bedding 5 cm deep. Twenty four clean glass marbles (15 mm diameter) were evenly spaced in four rows of six on top of the bedding. Each mouse was left in the cage for 30 minutes and the number of marbles buried (buried more than ½ or ⅔) was counted. The potent ability of the compounds was determined as percent value of reduction in the number of marbles buried comparing to the control group.

[6] = tested on: mice; assay: Acetic acid induced writhing test (AA writhing test); type: in vivo; details: 0.8% acetic acid i.p. 30 min later, vs control group
Text: Specially the results of Marble burying test (MB) in mice as noted in Table 3 show the compounds of the invention are related to the treatment of anxiety. Acetic Acid Induced Writhing Test (AA Writhing Test)
The Acetic acid-induced writhing test is a well-established nociceptive test using a chemical stimulus. Although several animal models of nociceptive tests have been developed to examine and compare the anti-nociceptive effects of different drugs, the anti-nociceptive effects of antidepressants appear to be test-dependent. Indeed, the acetic acid-induced writhing test is more sensitive to antidepressants than other tests using thermal, mechanical or electrical stimuli.
The animals were subcutaneously treated with the test compound with an injection volume of 10 ml/kg. The group treated with 30% PEG400 or saline served as a control group. Thirty minutes later, the mice were intraperitoneally treated with 0.8% (v/v) acetic acid. Each mouse was then placed in a cage for individual observation. The writhing numbers for 10 minutes were counted. The writhe is operationally defined as a contraction of the abdomen followed by stretching of the hind limbs. The potent ability of the compounds was determined as percent value of reduction in the number of writhing comparing to the control group.

T3 sequence (Q01959 whole entry): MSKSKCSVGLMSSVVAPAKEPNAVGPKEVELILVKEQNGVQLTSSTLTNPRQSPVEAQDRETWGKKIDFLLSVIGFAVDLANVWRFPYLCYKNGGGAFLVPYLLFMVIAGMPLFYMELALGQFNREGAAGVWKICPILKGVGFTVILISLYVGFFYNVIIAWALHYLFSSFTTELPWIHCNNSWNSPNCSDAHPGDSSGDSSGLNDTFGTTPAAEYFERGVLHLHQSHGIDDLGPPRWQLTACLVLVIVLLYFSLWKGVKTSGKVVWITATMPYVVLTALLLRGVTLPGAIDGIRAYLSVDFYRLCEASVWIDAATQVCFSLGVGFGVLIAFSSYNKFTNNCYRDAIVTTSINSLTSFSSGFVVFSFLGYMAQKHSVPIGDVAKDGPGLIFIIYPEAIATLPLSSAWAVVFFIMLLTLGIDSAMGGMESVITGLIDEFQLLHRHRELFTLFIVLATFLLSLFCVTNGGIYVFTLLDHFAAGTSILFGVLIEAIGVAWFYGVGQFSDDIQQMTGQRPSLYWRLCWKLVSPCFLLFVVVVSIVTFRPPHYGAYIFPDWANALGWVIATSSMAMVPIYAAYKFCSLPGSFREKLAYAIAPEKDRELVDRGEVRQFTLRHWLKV
T1 sequence (P31645 whole entry): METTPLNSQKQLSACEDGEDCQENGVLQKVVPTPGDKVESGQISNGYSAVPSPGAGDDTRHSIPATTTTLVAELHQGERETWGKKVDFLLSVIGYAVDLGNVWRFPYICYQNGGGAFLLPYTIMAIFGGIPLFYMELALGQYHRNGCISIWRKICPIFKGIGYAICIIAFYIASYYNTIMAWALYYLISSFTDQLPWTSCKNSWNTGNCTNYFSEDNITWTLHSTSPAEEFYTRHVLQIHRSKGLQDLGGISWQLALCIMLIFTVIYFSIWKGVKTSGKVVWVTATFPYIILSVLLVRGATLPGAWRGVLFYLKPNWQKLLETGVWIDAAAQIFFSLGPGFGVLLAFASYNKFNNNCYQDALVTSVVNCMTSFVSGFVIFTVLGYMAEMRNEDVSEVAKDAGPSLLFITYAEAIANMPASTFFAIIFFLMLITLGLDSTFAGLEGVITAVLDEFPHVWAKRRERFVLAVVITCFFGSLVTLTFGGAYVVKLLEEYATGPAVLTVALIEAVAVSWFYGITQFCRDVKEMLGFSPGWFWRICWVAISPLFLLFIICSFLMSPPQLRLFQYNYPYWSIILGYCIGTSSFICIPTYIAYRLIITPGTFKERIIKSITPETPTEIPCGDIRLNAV
T2 sequence (P23975 whole entry): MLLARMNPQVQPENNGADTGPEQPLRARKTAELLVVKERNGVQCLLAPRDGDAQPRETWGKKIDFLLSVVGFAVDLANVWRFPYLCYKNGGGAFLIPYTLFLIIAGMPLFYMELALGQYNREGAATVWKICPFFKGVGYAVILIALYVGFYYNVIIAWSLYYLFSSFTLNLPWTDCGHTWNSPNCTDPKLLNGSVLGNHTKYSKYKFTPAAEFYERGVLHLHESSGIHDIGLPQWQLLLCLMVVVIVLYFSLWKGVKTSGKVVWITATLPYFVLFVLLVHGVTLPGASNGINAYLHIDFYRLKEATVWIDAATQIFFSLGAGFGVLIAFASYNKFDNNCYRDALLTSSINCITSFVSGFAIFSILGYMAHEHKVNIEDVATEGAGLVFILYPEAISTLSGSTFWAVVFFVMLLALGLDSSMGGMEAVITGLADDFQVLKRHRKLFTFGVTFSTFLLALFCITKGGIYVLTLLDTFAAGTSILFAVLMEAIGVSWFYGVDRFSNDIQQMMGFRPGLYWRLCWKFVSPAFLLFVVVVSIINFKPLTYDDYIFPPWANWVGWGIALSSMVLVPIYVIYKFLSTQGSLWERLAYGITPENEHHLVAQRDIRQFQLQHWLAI

| Structure (SMILES) | inhibition at 0.1 µM [1] [%] | inhibition at 0.1 µM [2] [%] | inhibition at 0.1 µM [3] [%] | inhibition in vivo at 30 mg/kg [4] [%] | Reduction % at 30ip (number of marbles buried) ([5]; 30ip) [%] | Reduction % at 30sc (number of writhing) [6] [%] | Reduction % (number of marbles buried) at 20ip ([5]; 20ip) | Reduction % (number of writhing) at 10sc [6] |
| --- | --- | --- | --- | --- | --- | --- | --- | --- |
| Cc1nnn([C@@H](c2ccc3ccccc3c2)[C@@H]2CCCNC2)n1 [Example 12, (3R)-3-[(R)-(5-methyl-2H-tetrazol-2-yl)(naphthalen-2-yl)methyl]piperidine] | 83 | 90 | 92 | 9.7 | 91.8 | 50.5 | – | – |
| c1ccc2cc([C@H]([C@H]3CCCNC3)n3ncnn3)ccc2c1 [Example 2, (3S)-3-[(S)-naphthalen-2-yl(2H-tetrazol-2-yl)methyl]piperidine] | 98 | 85 | 85 | 37.5 | – | – | 67.5% (at 20ip) | 60.6% (at 10sc) |
| c1ccc(-c2nnn([C@H](c3ccc4ccccc4c3)[C@H]3CCCNC3)n2)cc1 [Example 75, (3S)-3-[(S)-naphthalen-2-yl-(5-phenyl-tetrazol-2-yl)methyl]piperidine] | 86 | -1 | 41 | – | – | – | – | – |
| Clc1ccc2cc([C@H]([C@H]3CCCNC3)n3ncnn3)ccc2c1 [Example 68, (3S)-3-[(S)-(6-chloronaphthalen-2-yl)(2H-tetrazol-2-yl)methyl]piperidine] | 96 | 57 | 63 | 7.1 | – | – | – | 48.1% (at 10sc) |
| Clc1ccc2cc([C@@H]([C@@H]3CCCNC3)n3ncnn3)ccc2c1 [Example 67, (3R)-3-[(R)-(6-chloronaphthalen-2-yl)(2H-tetrazol-2-yl)methyl]piperidine] | 97 | 90 | 81 | 2.4 | – | – | – | – |
| Fc1ccc2cc([C@@H]([C@H]3CCCNC3)n3ncnn3)ccc2c1 [Example 72, (3S)-3-[(R)-(6-fluoronaphthalen-2-yl)(2H-tetrazol-2-yl)methyl]piperidine] | 86 | 6 | 2 | 46.7 | – | – | – | – |
| Cc1ccc2cc([C@@H]([C@H]3CCCNC3)n3ncnn3)ccc2c1 [Example 86, (3S)-3-[(R)-(6-methylnaphthalen-2-yl)(2H-tetrazol-2-yl)methyl]piperidine] | 93 | -1 | 35 | 13.4 | – | – | – | – |
| Cc1nnn([C@H](c2ccc3ccccc3c2)[C@H]2CCCNC2)n1 [Example 10, (3S)-3-[(S)-(5-methyl-2H-tetrazol-2-yl)(naphthalen-2-yl)methyl]piperidine] | 93 | 87 | 93 | – | – | – | – | – |
| Clc1ccc2cc([C@@H]([C@H]3CCCNC3)n3ncnn3)ccc2c1 [Example 70, (3S)-3-[(R)-(6-chloronaphthalen-2-yl)(2H-tetrazol-2-yl)methyl]piperidine] | 95 | 14 | 3 | – | – | – | – | – |
| c1ccc2cc([C@H]([C@H]3CCCNC3)n3nc4ccccc4n3)ccc2c1 [Example 80, 2-{(S)-naphthalen-2-yl[(3S)-piperidin-3-yl]methyl}-2H-benzotriazole] | 59 | 55 | 84 | – | – | – | – | – |
| COc1ccc2cc([C@H]([C@H]3CCCNC3)n3ncnn3)ccc2c1 [Example 35, (3S)-3-[(S)-(6-methoxynaphthalen-2-yl)(2H-tetrazol-2-yl)methyl]piperidine] | 76 | 72 | 78 | 32.7 | – | – | – | – |
| c1ccc2cc([C@H]([C@H]3CCCNC3)n3nccn3)ccc2c1 [Example 14, (3S)-3-[(S)-naphthalen-2-yl(2H-1,2,3-triazol-2-yl)methyl]piperidine] | 76 | 70 | 52 | 6.4 | – | – | – | – |
| c1ccc2cc([C@@H]([C@@H]3CCCNC3)n3nccn3)ccc2c1 [Example 13, (3R)-3-[(R)-naphthalen-2-yl(2H-1,2,3-triazol-2-yl)methyl]piperidine] | 84 | 87 | 63 | 9.4 | – | 71.8 | – | – |
| c1ccc2cc([C@H]([C@H]3CCCNC3)n3cncn3)ccc2c1 [Example 90, (3S)-3-[(S)-naphthalen-2-yl(1H-1,2,4-triazol-1-yl)methyl]piperidine] | 87 | 39 | 44 | – | – | – | – | – |
| Cc1ccc2cc([C@H]([C@H]3CCCNC3)n3ncnn3)ccc2c1 [Example 85, (3S)-3-[(S)-(6-methylnaphthalen-2-yl)(2H-tetrazol-2-yl)methyl]piperidine] | 94 | 74 | 81 | 11.3 | – | – | – | 46.4% (at 10sc) |
| Fc1ccc2cc([C@H]([C@@H]3CCCNC3)n3ncnn3)ccc2c1 [Example 84, (3R)-3-[(S)-(6-fluoronaphthalen-2-yl)(2H-tetrazol-2-yl)methyl]piperidine] | 44 | 5 | -4 | – | – | – | – | – |
